Several values for one entry are separate records, joined by “and”; a condition that tells them apart may be missing. Equal entries are not always repeated. Where two headings read alike, the source gives them in different places.
Legend:
[1] = molecular target: T1, Human recombinant C-terminal His-tag-HDAC8 (Homo sapiens, UniProt Q9BY41); test: HDAC-Glo I/II bioluminogenic enzyme assay, HDAC8; assay type: biochemical; settings: mean ± SD of three independent experiments; read-out: HDAC Inhibition, IC50 ± SD, HDAC8
T1 construct: His (C); purchased BPS Bioscience 50008
T1 sequence (Q9BY41 1-377): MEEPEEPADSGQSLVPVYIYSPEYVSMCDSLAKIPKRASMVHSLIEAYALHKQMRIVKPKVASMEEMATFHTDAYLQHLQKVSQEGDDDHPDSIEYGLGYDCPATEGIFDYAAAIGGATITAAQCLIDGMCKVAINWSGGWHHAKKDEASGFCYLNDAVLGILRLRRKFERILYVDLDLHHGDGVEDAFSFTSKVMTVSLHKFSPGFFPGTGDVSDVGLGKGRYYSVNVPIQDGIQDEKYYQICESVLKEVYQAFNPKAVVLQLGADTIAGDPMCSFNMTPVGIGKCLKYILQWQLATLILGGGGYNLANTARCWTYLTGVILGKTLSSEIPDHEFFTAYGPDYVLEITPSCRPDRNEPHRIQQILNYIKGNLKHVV

MDA-MB-231 cells [2] = test: Cell viability (MTT) assay, MDA-MB-231; assay type: cell-based, human; settings: read-out: Cytotoxic activity IC50 ± SD, MDA-MB-231
Experimental: Human breast adenocarcinoma cells (MCF-7, ATCC® HTB-22™) and triple-negative breast cancer cells (MDA-MB-231, ATCC® HTB-26™) were obtained from the American Type Culture Collection (Rockville, MD, USA). Cells were maintained as a monolayer culture in DMEM:Ham’s 12 (1:1) medium (Sigma-Aldrich, St. Louis, MO, USA) supplemented with penicillin (192 U/mL), streptomycin (200 µg/mL), and 10% of heat-inactivated fetal calf serum (FCS). Cells were grown at 37 °C in 5% CO2 and humidified air atmosphere, by twice weekly subculture.
Cytotoxic activity of synthesized 1-benzhydryl-piperazine-based HDAC inhibitors was assessed on MDA-MB-231 and MCF-7 cells using an MTT assay. MDA-MB-231 (5 × 10^3 cells/well) and MCF-7 (5 × 10^3 cells/well) were treated with synthesized compounds in six different concentrations (100, 50, 25, 12.5, 6.25, and 3.13 μM), and each concentration was added in five replicates. MTT solution (3-(4,5-dimethylthiazol-2-yl)-2,5-diphenyltetrazolium bromide) (Sigma-Aldrich, St. Louis, USA) was added to each well (20 µL) after 48 h. After 4 h of incubation, 100 μL of 10% SDS was added in each well and incubated at 37 °C. On the next day, the absorbance at 570 nm was recorded. The ratio of absorbance (570 nm) values between treated and control cells multiplied by 100 was used to calculate cell survival (%). The concentration of synthesized HDAC inhibitors that reduced cell viability by 50% was defined as the IC50 value, and was compared to the vehicle control.

MDA-MB-231 cells [3] = test: Cell cycle analysis, propidium iodide flow cytometry; assay type: cell-based, human; settings: IC50 concentration; for percentage of cells in S phases: 48 h
Experimental: MDA-MB-231 cells were treated with tested compounds for specified time courses. After treatment, examined cells were washed in cold PBS and incubated for 30 min in 96% ethanol on ice, centrifuged, and incubated with 80 μL RNase A ([…]) and 50 μL propidium iodide (50 μg/mL) for 30 min at 37 °C. The cell cycle was analyzed by FACS Calibur E440 (Becton Dickinson) flow cytometer and Cell Quest software. Results are presented as a percentage of cell cycle phases.

[4] = molecular target: T2, Human recombinant N-ter-GST-HDAC-6 (Homo sapiens, UniProt Q9UBN7); test: HDAC-Glo I/II bioluminogenic enzyme assay, HDAC6; assay type: biochemical; parameters: GST (N); purchased BPS Bioscience 50006; settings: for % HDAC6 Inhibition at 5 μM / inhibition at 5 µM: mean ± standard error of triplicate; for IC50: mean ± SD of three independent experiments, read-out: HDAC Inhibition, IC50 ± SD, HDAC6; for Selectivity Ratio HDAC1/6 / Selectivity Ratio HDAC3/6 / Selectivity Ratio HDAC8/6: ratio of IC50 values
T2 sequence (Q9UBN7 1-1215): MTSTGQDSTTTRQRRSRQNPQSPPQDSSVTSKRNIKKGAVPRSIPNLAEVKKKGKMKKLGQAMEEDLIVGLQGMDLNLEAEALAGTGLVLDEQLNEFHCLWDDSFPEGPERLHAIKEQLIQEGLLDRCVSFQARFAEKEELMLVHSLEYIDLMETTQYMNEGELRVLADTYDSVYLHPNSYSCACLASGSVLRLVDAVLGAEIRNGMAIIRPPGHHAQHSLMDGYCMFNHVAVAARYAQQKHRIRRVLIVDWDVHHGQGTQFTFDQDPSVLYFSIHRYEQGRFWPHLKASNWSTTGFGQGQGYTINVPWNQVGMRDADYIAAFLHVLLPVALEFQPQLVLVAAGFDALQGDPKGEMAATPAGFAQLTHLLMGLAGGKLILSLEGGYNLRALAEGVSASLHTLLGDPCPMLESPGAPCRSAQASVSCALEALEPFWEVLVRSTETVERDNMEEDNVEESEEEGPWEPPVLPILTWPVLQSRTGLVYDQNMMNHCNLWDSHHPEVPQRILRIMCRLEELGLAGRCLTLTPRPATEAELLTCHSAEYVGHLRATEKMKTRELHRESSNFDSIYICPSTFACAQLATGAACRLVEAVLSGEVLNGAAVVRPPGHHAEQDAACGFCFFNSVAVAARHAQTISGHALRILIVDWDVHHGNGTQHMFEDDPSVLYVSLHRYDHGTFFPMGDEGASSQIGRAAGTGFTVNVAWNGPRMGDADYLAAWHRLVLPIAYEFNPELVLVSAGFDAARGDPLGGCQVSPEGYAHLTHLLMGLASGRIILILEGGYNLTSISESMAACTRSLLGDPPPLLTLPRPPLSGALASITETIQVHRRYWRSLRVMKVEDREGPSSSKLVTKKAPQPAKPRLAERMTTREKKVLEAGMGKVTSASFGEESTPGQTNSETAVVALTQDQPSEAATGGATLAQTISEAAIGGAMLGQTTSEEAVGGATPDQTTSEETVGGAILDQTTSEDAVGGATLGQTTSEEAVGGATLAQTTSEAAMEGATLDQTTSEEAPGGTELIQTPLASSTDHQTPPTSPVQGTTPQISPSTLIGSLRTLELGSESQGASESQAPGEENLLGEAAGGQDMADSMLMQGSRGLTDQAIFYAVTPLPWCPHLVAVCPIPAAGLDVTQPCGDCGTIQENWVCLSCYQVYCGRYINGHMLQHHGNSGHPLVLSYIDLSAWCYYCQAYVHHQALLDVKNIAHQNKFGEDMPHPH

SMILES	IC50 [1] [nM]	IC50 (MDA-MB-231 cells [2]; Homo sapiens, MDA-MB-231, 48 h) [nM]	percentage of cells in the G2/M phase (MDA-MB-231 cells [3]; 24 h)	percentage of cells in S phases (MDA-MB-231 cells [3])	% HDAC6 Inhibition at 5 μM [4] [%]	inhibition at 5 µM [4] [%]	IC50 [4] [nM]	Selectivity Ratio HDAC1/6 [4]	Selectivity Ratio HDAC3/6 [4]	Selectivity Ratio HDAC8/6 [4]	IC50 (MDA-MB-231 cells [2]; 48 h) [nM]	percentage of cells in the S phase (MDA-MB-231 cells [3]; 24 h)
O=C(CCCCCCN1CCN(C(c2ccccc2)c2ccccc2)CC1)NO [Compound 7b, 7-(4-(diphenylmethyl)-piperazin-1-yl)-N-hydroxyheptanamide]	345 ± 17	10600 ± 1950	slight increase	increased	97.1 ± 0.8	> 90	96 ± 8	6.4	2.8	3.6	–	–
O=C(CCCCCCCN1CCN(C(c2ccccc2)c2ccccc2)CC1)NO [Compound 8b, 8-(4-(diphenylmethyl)-piperazin-1-yl)-N-hydroxyoctanamide]	245 ± 2	5420 ± 770	slight increase	increased	97.7 ± 0.2	> 90	124 ± 13	3.3	1.7	2	–	–
O=C(NO)c1ccc(CN2CCN(C(c3ccccc3)c3ccccc3)CC2)cc1 [Compound 9b, 4-(4-(diphenylmethyl)-piperazin-1-ylmethyl)-N-hydroxy-benzamide]	708 ± 45	38100	–	increased	96.9 ± 0.3	> 90	31 ± 4	47.5	112 and 111.8	23	38200 ± 3010	increased
